System: skin itch
Assay: Topical application of chlorhydrate composition to individuals with skin itch
Assay type: in vivo, human
Description: Three individuals, each complaining of skin itch of undetermined origin, were treated as follows. A composition was prepared at a concentration of aluminum chlorhydrate of about 10 to about 20 weight percent in water and further including a small quantity of a quaternary ammonium compound as a preservative.
An adult individual has applied 30% wt. of aluminum chlorhydrate in a topical cream to an area of the forearm experiencing itch.
An adult complains of itch on their legs.
An adult complaining of itch on their forearms and legs applies an ointment composition including 25% wt. of aluminum zirconium chlorhydrate to the affected areas.
An aqueous composition comprising aluminum chlorhydrate at a concentration of about 20 weight percent is applied to a synthetic fabric wipe and sealed in a tear-open pouch. Subsequently, an adult experiencing itch on their forearms tears open the pouch and wipes the area of the skin with the moist wipe; the wipe and pouch are discarded after use.

[1] = adult female, legs, 30% wt. in a lotion
[2] = adult male, forearms, aqueous composition about 20 weight percent on synthetic fabric wipe
[3] = adult male, forearms and legs, ointment composition including 25% wt.

Row | Substance | duration of relief of itch [1] | time to relief of itch [1] | relief of skin itch (adult individual, forearm, 30% wt. in a topical cream, no other active agent) | duration of relief from itching [2] | time to relief from itching [2] | time to relief from itching (three adults (one male, two female), skin itch of undetermined origin, about 10 to about 20 weight percent in water with quaternary ammonium preservative, pump spray) | duration of relief from itching (three adults, skin itch of undetermined origin, about 10 to about 20 weight percent in water, pump spray) | adverse side effects (three adults, about 10 to about 20 weight percent in water, pump spray to itching skin) | duration of relief of itch [3] | time to relief of itch [3]
1 | aluminum chlorhydrate | about 24 hours | within a few minutes | relieves the skin itch | about a day | within minutes | within a few minutes | about one day | No adverse side effects were reported |  | 
2 | aluminum zirconium chlorhydrate |  |  |  |  |  |  |  |  | about 24 hours | within minutes

Reference: US7351747B2, “Skin treatment for relief of itch” (priority 2003, dated 2008)
